Among the data in PubChem BioAssay AID179 (DTP/NCI, 2004) are outcome, EC50 and IC50 values, retold here.

The source made the active and inactive calls.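 Rule for the calls: active = compounds giving half or more protection of infected cells from virus-caused growth loss, again on retest; inactive = the rest.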 A value given as a limit tells only on which side of the number the result lay.

A word on the EC50: it is the concentration that produces a half-maximal response. The term IC50 denotes the concentration that gives 50% inhibition.

This assay deals with CEM cells HIV-1 protection, formazan growth assay. Briefly: NCI AIDS Antiviral Assay. As to conditions: for IC50: measured here: growth of uninfected CEM cells. The method, boiled down: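 Human CEM cells, uninfected and HIV-1-infected, exposed to five drug concentrations; growth measured by soluble formazan assay and scored as percent protection from infection, with protecting compounds retested.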

For `S=C1SCC2CCCN12` (stereo not drawn), the result was inactive.
As for `COc1cccc(/C=N/[N-]C(=O)c2ccncc2)c1[O-].[Mn+2].[OH3+]`, the EC50 is > 39.8 µM and the IC50 worked out at 6.61 µM.
As for `Cc1cc2c3ccccc3n(C)c2c2c1C(=O)C=CC2=O`, the EC50 was > 69.2 µM and the IC50 came to 5.89 µM.
On to `CC1OC(OCC2OC(Oc3c(-c4ccc(O)cc4)oc4cc(OC5OC(C)C(O)C(O)C5O)cc(O)c4c3=O)C(O)C(O)C2O)C(O)C(O)C1O` (stereo not drawn), for which the result was active.
As for `CC(=O)O/N=C(/C)c1ccccc1O`, the EC50 is > 26.9 µM and the IC50 is > 26.9 µM.
Regarding `N#C/C(=C\c1ccc(Cl)cc1)c1nc2ccccc2c(=O)[nH]1`, the result was inactive.
On to `Cc1sc2nc3n(c(=O)c2c1C)N=C(c1ccc([N+](=O)[O-])cc1)CS3`, for which the EC50 is > 200 µM and the IC50 was > 200 µM.
Consider `Cc1ccc2n(c1)cc(-c1ccc(/C=N/NC(=N)N/N=C/c3ccc(-c4cn5cc(C)ccc5[n+]4C)cc3)cc1)[n+]2C`, for which the EC50 was 15.5 µM and the IC50 stood at 49 µM.
`C1=C(c2ccccc2)Nc2ccccc2N=C1c1ccccc1`: the EC50 is > 200 µM and the IC50 was > 200 µM.
As for `O=c1[nH]nc(Cc2ccccc2)n1/N=C/c1c(O)ccc2ccccc12`, the EC50 was 40.7 µM and the IC50 stood at 174 µM.
For the compound `CN1CCN(C2=NCCO2)CC1`, the EC50 is > 200 µM and the IC50 was > 200 µM.
On to `C=CCOC(C)(C)C1=CCC(C)CC1` (stereo not drawn), for which the EC50 was > 100 µM and the IC50 is > 100 µM.
For `O=C(O)[C@H](NS(=O)(=O)c1ccc([N+](=O)[O-])cc1)c1ccccc1`, the result was inactive.
For `Cc1ccc(S(=O)(=O)NC(CCC(=O)NN)C(=O)NN)cc1` (stereo not drawn), the EC50 is > 200 µM and the IC50 was > 200 µM.
With `N#C/C(=C\c1ccc2[nH]ccc2c1)C(=O)NCCCCNC(=O)/C(C#N)=C/c1ccc2[nH]ccc2c1`, the EC50 was > 7.94 µM and the IC50 was > 7.94 µM.
Take `COc1cc2c(cc1OC)C(OC)N(C)c1c-2ccc2cc3c(cc12)OCO3` (stereo not drawn): the EC50 was > 20 µM and the concentration for half-maximal inhibition (IC50) stood at 0.309 µM.
With `O=C(O)C1CC1`, the outcome was inactive.
`COC(=O)[C@H](Cc1ccccc1)NC(=O)N(CCC#N)CCN(C(=O)N[C@@H](Cc1ccccc1)C(=O)OC)c1ccccc1`: the EC50 was > 200 µM and the IC50 came to 29.5 µM.
For `CCN(CC)C(C)(O)CN` (stereo not drawn), in that order: > 200 µM and > 200 µM.
The compound `O=C(O)C1CCCCC1c1c2ccc(=O)c(O)c-2oc2c(O)c(O)ccc12` (stereo not drawn) returned an EC50 of 17 µM and an IC50 of 83.2 µM.
As for `COc1ccc2c3c1O[C@]1(C)C34CCN(C)C(C2)C42C=C[C@@]1(OC)c1c(O)ccc(O)c12`, the EC50 is > 60.3 µM and the IC50 is > 60.3 µM.
Turning to `Nc1nc(N)c(CCCCc2ccccc2)c(Cc2ccccc2)n1`, the outcome was inactive.
For `O=c1cnc2c(ccc3ccccc32)[nH]1`, the EC50 is > 182 µM and the IC50 is > 182 µM.
In the case of `Cc1ccc(NC(=O)CCc2nc(=S)[nH][nH]2)cc1`, the concentration giving a half-maximal response (EC50) is 251 µM and the IC50 was 331 µM.
On to `O=C(Nc1ccccc1)O/N=C1/CCCC/C1=C\c1ccccc1`, for which the EC50 was > 42.7 µM and the IC50 was 39.8 µM.
With `O=C(N/N=C1/C(=O)N(c2ccc(Cl)cc2Cl)C(=O)C(=O)C1c1nc2ccccc2o1)c1ccccc1O` (stereo not drawn), the outcome was inactive.
Take `Cc1cc(=O)c2c(ccc3c(=O)cc(C)[nH]c32)[nH]1`: the EC50 is > 257 µM and the IC50 is 240 µM.
For `Cc1cc(Cl)cc(S)c1S(=O)(=O)Nc1nnc2c3ccccc3cnn12`, in that order: 77.6 µM and > 200 µM.
Turning to `C=CCC1(O)C(=O)OC2C(O)COC21O` (stereo not drawn), the EC50 is > 200 µM and the IC50 was > 200 µM.
Regarding `NC(N)=NS(=O)(=O)c1ccc(NNc2c3ccccc3nc3ccccc23)cc1`, the EC50 was > 200 µM and the IC50 was found to be 1.07 µM.
For `Cn1c(N)c(/C=N/NC(=O)CC#N)c(=O)n(C)c1=O`, in that order: > 200 µM and > 200 µM.
`O=[As](O)(O)c1ccc(N=Nc2ccc(O)cc2)cc1`: the EC50 was > 200 µM and the IC50 amounted to 138 µM.
With `CCOC(=O)C(Oc1ccc(OC)c2c1C(=O)CCC2)c1ccccc1` (stereo not drawn), the outcome was inactive.
For `COc1ccc(-c2cc(-c3ccc4c(c3)CC(C)O4)nc(N)n2)cc1` (stereo not drawn), the EC50 is > 30.2 µM and the IC50 is 20 µM.
In the case of `Cc1cc(C)n(-c2nc(-c3ccccc3)cs2)n1`, the EC50 is > 200 µM and the IC50 is 72.4 µM.
As for `CCOC(=O)Cn1c(=O)n(C)c(=O)c2[nH]cnc21`, the EC50 was > 1000 µM and the IC50 is > 1000 µM.
Consider `CN(C)P1(=O)N(c2ccccc2)P(=O)(N(C)C)N1c1ccccc1` (stereo not drawn), for which the EC50 was > 224 µM and the IC50 is > 224 µM.
As to `Fc1ccc(/C=C2\COCC3=C2NC(=S)NC3c2ccc(F)cc2)cc1` (stereo not drawn), the outcome was inactive.
In the case of `CCn1c(=O)c(N=O)c(N)n(CCO)c1=O`, the EC50 was > 200 µM and the IC50 is > 200 µM.
`O/N=C1\CC2(N3CCOCC3)CCC1(c1ccccc1)CC2`: the result was inactive.
In the case of `Nc1cccc2cn[nH]c12`, the EC50 is > 1480 µM and the IC50 turned out to be 229 µM.
`O=C1CCCN1CCCN=c1cc2n(-c3ccc(Cl)cc3)c3ccccc3nc-2cc1Nc1ccc(Cl)cc1`: the outcome was inactive.
Turning to `CCC1(CCC#N)CCc2[nH]c3ccccc3c2C1=O` (stereo not drawn), the EC50 was > 200 µM and the IC50 is 174 µM.
For `CC1(C#N)N(C(=O)c2ccccc2)c2ccccc2N1C(=O)c1ccccc1`, the outcome was inactive.
With `CNC(=S)NNc1ncnc2c1ncn2-c1ccc(C)cc1`, the EC50 is > 200 µM and the IC50 worked out at 57.5 µM.
For `CN1C(=O)CCC2(c3ccccc3)CC=C(O)C=C12` (stereo not drawn), in that order: > 200 µM and > 200 µM.
Take `O=C1/C(=C/c2cccs2)NC(=S)N1CN1CCCCC1`: the EC50 was > 200 µM and the IC50 was found to be 33.1 µM.
On to `Oc1cccc2cc(Cl)cnc12`, for which the EC50 is > 20 µM and the IC50 came to 8.32 µM.
As to `CC(=O)/C(=C\c1cccc([N+](=O)[O-])c1)C(=O)Nc1ccccc1C`, the EC50 was > 22.4 µM and the IC50 was > 22.4 µM.
As for `CCOC(=O)/C(=C\c1cccc(Br)c1)P(=O)(OCC)OCC`, the EC50 was > 91.2 µM and the IC50 came to 6.03 µM.
Regarding `CC(C)=C=CC(C)(C)NS(=O)(=O)NC(C)(C)C=C=C(C)C`, the EC50 was > 200 µM and the IC50 was 105 µM.
As to `CN(C)c1ccc2c(c1)-c1cc(N(C)C)ccc1C2=CC=C(C#N)C#N`, the EC50 is > 4.27 µM and the IC50 was > 4.27 µM.
For the compound `Clc1nc(Cl)nc(Nc2ccccc2Cl)n1`, the EC50 was > 200 µM and the IC50 was found to be 97.7 µM.
For `O=C(O)c1cc(O)cc(O)c1N=Nc1ccc(/C=C/c2ccc(N=Nc3c(O)cc(O)cc3C(=O)O)cc2S(=O)(=O)O)c(S(=O)(=O)O)c1`, the EC50 is 0.813 µM and the IC50 is 91.2 µM.
As for `Cc1c(N)nc(C(CC(N)=O)NCC(N)C(N)=O)nc1C(=O)NC(C(=O)NC(C)C(O)C(C)C(=O)NC(C(=O)NCCc1nc(-c2nc(C(=O)NCCCNC(C)c3ccccc3)cs2)cs1)C(C)O)C(OC1OC(CO)C(O)C(O)C1OC1OC(CO)C(O)C(OC(N)=O)C1O)c1cnc[nH]1` (stereo not drawn), the result was inactive.
Consider `O=c1ccc(=Nc2ccc(NNc3ccccc3)cc2)c2c(=O)c3c([N+](=O)[O-])ccc(O)c3c(=O)c1=2`, for which the EC50 is > 100 µM and the IC50 is 17.8 µM.
For `Cc1ccccc1OCC1COC(c2ccc(Cl)cc2)O1` (stereo not drawn), the EC50 is > 200 µM and the IC50 was > 200 µM.
As to `CCC(C)C(NC(=O)C(N)CCCN=C(N)N)C(=O)NC(CCC(N)=O)C(=O)NC(CCCN=C(N)N)C(=O)NCC(=O)N1CCCC1C(=O)NCC(=O)NC(CCCN=C(N)N)C(=O)NC(C)C(=O)NC(Cc1ccccc1)C(=O)NC(C(=O)NC(C(=O)NC(C(=O)NCC(=O)NC(CCCCN)C(N)=O)C(C)CC)C(C)OC1OC(CO)C(O)C(O)C1NC(C)=O)C(C)C` (stereo not drawn), the EC50 is > 50.1 µM and the IC50 is > 50.1 µM.
For `COc1ccc(Cc2c3cc(O)c(=O)cc-3ccn2C)cc1`, the EC50 is > 33.9 µM and the IC50 is 6.46 µM.
Regarding `Nc1ncnc2c1ncn2C1COC(CO)C1CO` (stereo not drawn), the EC50 was 87.1 µM and the IC50 is > 200 µM.
As for `O=C1OC(=O)C2=C1C(c1cccs1)C=C(c1cccnc1)N2c1ccncc1` (stereo not drawn), the EC50 was > 200 µM and the IC50 came to 9.77 µM.
For `CCOC(=O)/C(C[C@H]1OC(C)(C)O[C@@H]1[C@H]1COC(C)(C)O1)=N/O`, in that order: > 200 µM and > 200 µM.
Turning to `CCN(CC)CCC12CC(C)OC1=Nc1ccccc1NC2=O` (stereo not drawn), the EC50 was > 200 µM and the IC50 was > 200 µM.
On to `O=c1cc(-c2ccc(Cl)cc2)oc2cc(OCCCOc3ccc4c(=O)cc(-c5ccc(Cl)cc5)oc4c3)ccc12`, for which the EC50 was > 0.646 µM and the 50% inhibitory concentration (IC50) was > 0.646 µM.
Turning to `CCCCCCCCCCCCOC1C(COCCN2CCCCC2)OC2OC(C)(C)OC21` (stereo not drawn), the EC50 was > 200 µM and the IC50 was 2.63 µM.
Consider `O=C1COC(C(=O)c2ccccc2)C(=O)N1` (stereo not drawn), for which the EC50 is > 117 µM and the IC50 is > 117 µM.
Regarding `CCC(=O)[O-].CCC(=O)[O-].N.N.N.N.[Co+3].[O-][Cl+3]([O-])([O-])[O-]`, the outcome was inactive.
As to `Cc1cccc2c(=O)c3cccc(CC(=O)O)c3oc12`, the EC50 is > 200 µM and the IC50 is > 200 µM.
With `COCOCC1CCCN1CN1CCC[C@H]1COCOC` (stereo partly drawn), the EC50 was > 200 µM and the IC50 was 107 µM.
In the case of `CC1(C)C(=O)/C=C\C(=O)C(C)(C)C2=CC=C(O2)C(C)(C)C(=O)/C=C\C(=O)C(C)(C)C2=CC=C1O2`, the result was inactive.
As to `Clc1ccccc1C(n1cc(Br)cn1)n1cc(Br)cn1`, the outcome was inactive.
For the compound `CCOC(=O)C1(C#N)C(C#N)(C#N)C1(C#N)C#N`, the EC50 is > 200 µM and the IC50 is > 200 µM.
